Where two headings read alike, the source gives them in different places.
Key:
[1] = system: Tetraselmis suecica cultures; conditions: hydroxide additions equivalent to 1 and 10 mg/L of Mg(OH)2, 6-day period
Tetraselmis suecica = conditions: for survival after six days of regrowth/culture: 1 hour exposure to 100 g/L Mg(OH)2, 200 g/L NaOH or 100 g/L Ca(OH)2, dilution to 10 mg/L, 6 days; for surviving cells immediately after dilution: 1 hour exposure to 200 g/L NaOH or 100 g/L Ca(OH)2, then dilution to 10 mg/L
[2] = Sinking rate of Mg(OH)2 in seawater; format: physicochemical
[3] = system: Skeletonema pseudocastatum
Tisbe battaglial [4] = conditions: acute, 48 h, n = 1; Mg(OH)2 mixed as paste into local seawater
Danio rerio = conditions: acute, 96 h, n = 1; Mg(OH)2 paste
Tisbe battaglial [5] = conditions: chronic, 7 days, n = 1; Mg(OH)2 mixed as paste into local seawater

Row | Compound | ecotoxicity (growth inhibition) [1] | survival after six days of regrowth/culture (Tetraselmis suecica) | surviving cells immediately after dilution (Tetraselmis suecica) | sinking rate ([2]; added as powder, visible particles (>100 μm)) | particle size distribution ([2]; added to seawater as paste) | sinking rate ([2]; small particles of about 10 micron, based on 4 cm sinking within 10 minutes, LISST instrument) [m/day] | dosage showing no negative impact ([3]; standardized ecotoxicity work) [mg/L] | dosages showing negative impact ([3]; standardized ecotoxicity work) [mg/L] | Lowest observed effect concentration (LOEC) ([3]; sub-chronic, 72 h, n = 2, Mg(OH)2 mixed as paste into local seawater) [mg/L] | Lowest observed effect concentration (LOEC) (Tisbe battaglial [4]) [mg/L] | Lowest observed effect concentration (LOEC) (Danio rerio) [mg/L] | Lowest observed effect concentration (LOEC) (Tisbe battaglial [5]) [mg/L] | mortality compared to the control water (Tetraselmis suecica; less than 10 hours of exposure to 100 g/L prior to dilution to 10 mg/L, survival six days after) | lowest tested concentration showing some toxicity effect on aquatic organisms (aquatic organisms; all standard test organisms) [mg/L] | concentration at which no toxicity effect was observed (aquatic organisms; any of the standard test organisms) [ng/mL] | pH of solution in seawater (0.05 g/L Mg(OH)2, after 115 minutes mixing (300 rpm), still increasing) | mixing time to full dissolution of particles (concentrations below ~10 mg/L, 60 m deep seawater pH 7.9-8.0, approx. 22 °C, 300 rpm) | maximum pH achieved (seawater, depends on Mg(OH)2 concentration)
1 | [Ca+2].[OH-].[OH-] [Ca(OH)2, calcium hydroxide] | not ecotoxic | very few living cells | no surviving cells |  |  |  |  |  |  |  |  |  |  |  |  |  |  | 
2 | [Mg+2].[OH-].[OH-] [Mg(OH)2, magnesium hydroxide] | not ecotoxic | no mortality |  | 0.8-6 km/day | 5-60 μm | ~6 | 25 | ≥ 50 | 50 | 100 | >100 | >100 | no mortality | 50 | 25000 | 9.04 | approximately 3 hours | ~9.5
3 | sodium hydroxide [NaOH] |  | no surviving organisms | no surviving cells |  |  |  |  |  |  |  |  |  |  |  |  |  |  | 
